Assay results: US4261994A, “1,2,4-Oxadiazole derivatives, their preparation and pharmaceutical use” (Synthelabo, priority 1977, dated 1981)
Read-outs that look alike come from different tables or passages of the source.

Columns and labels:
[1] = tested on: spontaneously hypertonic male rats; assay: Anti-hypertensive activity in spontaneously hypertonic male rats (method of Gerold and Tschirky), systolic pressure by pulse at caudal artery; format: in vivo; settings: Rattus norvegicus, po; for change in vivo at 20 mg/kg: administered dose 20 mg/kg orally; for change in vivo at 5 mg/kg: administered dose 5 mg/kg orally
Description: The anti-hypertensive activity is evaluated on spontaneously hypertonic male rats in accordance with the method of Gerold and Tschirky (Arzneim. Forsch, 1968, 18, 1,285). The systolic pressure is measured by taking the pulse at the level of the caudal artery. […]

[2] = Toxicity, 50% lethal dose, intraperitoneal administration to CD1 male rats; settings: rat, in vivo, ip; intraperitoneally to rats, fasted 18 hours; read-out: 50% lethal dose (LD 50)
Description: The toxicity of the compounds (I) was determined by intraperitoneal administration to CD1 (Charles River) male rats weighing 100 to 120 g, which had fasted for 18 hours.

[3] = 4 hours, read-out: Anti-hypertensive activity %, 4 hours
[4] = 24 hours, read-out: Anti-hypertensive activity %, 24 hours

## CN(C)c1noc(Cc2c(Cl)cccc2Cl)n1 [Compound 1]
[1]; [3]
  change in vivo at 20 mg/kg: -33%
[1]; [4]
  change in vivo at 20 mg/kg: -14%

## CNc1noc(Cc2c(Cl)cccc2Cl)n1 [Compound 2, 3-Methylamino-5-(2,6-dichlorobenzyl)-1,2,4-oxadiazole]
[1]; [3]
  change in vivo at 20 mg/kg: -18%
[1]; [4]
  change in vivo at 20 mg/kg: -9%

## CN(C)CCCNc1noc(Cc2c(Cl)cccc2Cl)n1 [Compound 6]
[1]; [3]
  change in vivo at 20 mg/kg: -5%
[1]; [4]
  change in vivo at 20 mg/kg: -7%
[2]
  LD50: < 250 mg/kg

## CN(C)C=Nc1noc(Cc2c(Cl)cccc2Cl)n1 [Compound 9]
[1]; [3]
  change in vivo at 20 mg/kg: -29%
[1]; [4]
  change in vivo at 20 mg/kg: -15%
[2]
  LD50: > 500 mg/kg

## CN1CCN(C=Nc2noc(Cc3c(Cl)cccc3Cl)n2)CC1 [Compound 10]
[1]; [3]
  change in vivo at 20 mg/kg: -29%
[2]
  LD50: < 500 mg/kg

## OCCN(C=Nc1noc(Cc2c(Cl)cccc2Cl)n1)CCO [Compound 11, 3-[N,N-Bis-(2-hydroxyethyl)-formamidino]-5-(2,6-dichlorobenzyl)-1,2,4-oxadiazole]
[1]; [3]
  change in vivo at 20 mg/kg: -32%
[2]
  LD50: ≥ 500 mg/kg

## Cc1cccc(C)c1Cc1nc(N=CN(C)C)no1 [Compound 14]
[1]; [3]
  change in vivo at 20 mg/kg: -22%
[1]; [4]
  change in vivo at 20 mg/kg: -13%

## CN(C)C=Nc1noc(Cc2c(F)cccc2Cl)n1 [Compound 15]
[1]; [3]
  change in vivo at 5 mg/kg: -26%
[1]; [4]
  change in vivo at 5 mg/kg: -6%
[2]
  LD50: ≤ 500 mg/kg

## Nc1noc(Cc2c(F)cccc2F)n1 [Compound 16]
[1]; [3]
  change in vivo at 5 mg/kg: -18%
[1]; [4]
  change in vivo at 5 mg/kg: -1%

## Nc1noc(Cc2c(Cl)cccc2Cl)n1 [Compound 18, 3-Amino-5-(2,6-dichlorobenzyl)-1,2,4-oxadiazole]
[1]; [3]
  change in vivo at 5 mg/kg: -18%
[1]; [4]
  change in vivo at 5 mg/kg: -3%
[2]
  LD50: 250 mg/kg

## Nc1noc(Cc2cc(Cl)ccc2Cl)n1 [Compound 19]
[1]; [3]
  change in vivo at 5 mg/kg: -18%
[1]; [4]
  change in vivo at 5 mg/kg: -3%
[2]
  LD50: ≥ 500 mg/kg
